Test system: HUVEC tube formation
Assay: HUVEC tube formation inhibition assay
Type: cell-based, Human
Design: key to Tube formation inhibition: −: no inhibition of tube formation; +/−: rare inhibition of tube formation; +: light inhibition of tube formation and slight tube cleavage; ++: significant inhibition of tube formation and heavy tube cleavage; +++: no tube formation
Conditions: 50 μg/ml; for Tube formation inhibition: TABLE 2, HUVEC on Matrigel, 18 hours; for Inhibition of HUVEC tube formation (in words): text summary of TABLES 1 and 2
Procedure: Human umbilical vein endothelial cells (HUVECs) were isolated from freshly obtained cords after cesarean section according to Grants' method (Grants D S et al., Cell, 58, pp 923-943, 1989). The isolated HUVECs were grown in culture media comprising M-199 (Gibco BRL, 31100-035), 10% FBS, 50 μg/ml ECGS (Endothelial cell growth supplement, Sigma E2795), and 50 μg/ml heparin (Sigma H3149).
HUVECs isolated in REFERENCE EXAMPLE 1 were cultured within passage 5, and then were divided into 20,000 to 50,000 cells per well of 48 well plate coated with, Matrigel (BD Biosciences, Bedford, Mass.). Crude extracts, non-polar solvent extracts, or fractions of C. officinale of EXAMPLES 1 to 4 were added to the above HUVEC culture well at the concentration of 50 μg/ml, respectively, and DMSO was added as a control. They were grown with culture media of the above REFERENCE EXAMPLE 1.
After HUVECs were further incubated at 37° C. for 18 hours, tube formation was observed using microscope. The results were summarized in TABLES 1 and 2 (−: no inhibition of tube formation, +/− rare inhibition of tube formation, +: light inhibition of tube formation and slight tube cleavage, ++: significant inhibition of tube formation and heavy tube cleavage, +++: no tube formation).

Row | SMILES | Tube formation inhibition | Inhibition of HUVEC tube formation (in words)
1 | CCCCC1OC(=O)c2c(O)cccc21 (single isomer, unassigned) [AS44-C-2-C-b-III, 3-butyl-7-hydroxyphthalide] | +++ | strongly inhibited HUVEC tube formation
2 | C=CC(O)C#CC#CC(O)C=C (single isomer, unassigned) [AS44-C-2-D-b-IV, 1,9-decadiene-4,6-diyne-3,8-diol] | +++ | strongly inhibited HUVEC tube formation
